How the values were obtained:
[1] = system: animals (rats, cats, dogs, pigs and monkeys); conditions: fed to animals over a period of 60 weeks; cited from earlier work
[2] = system: radiation-induced oral mucositis (mucosal ulceration) in the tongue of rats; test: Radiation-induced oral mucositis in rat tongue, single dose studies (Example 2); type: in vivo, Sprague-Dawley rats; conditions: single dose irradiation of rat tongue; 0.5 ml per day oral gavage; placebo water
Source text: The animals were maintained, and all experimental procedures performed in compliance with the Animal (Scientific Procedures) Act 1986. While under anaesthesia the animal's tongue was slightly extended outside and a region of the underside of the tongue was irradiated in situ with single doses of 2.27 MeV β-rays from a 5 mm or 11 mm diameter ^90Sr/^90Y plaque. The dose-rate of the 5 mm ^90Sr/^90Y plaque was ˜10 Gy/min and that of 11 mm source was ˜3 Gy/min at the surface of the mucus membrane 5 mm source was used for single dose study and 11 mm source was used for fractionated studies. The irradiation was carried out by simply positioning the sealed ^90Sr/^90Y plaque in contact with the surface of the tongue. The tongue was stretched gently and radioactive source was placed with a uniform pressure in all cases in order to avoid any local hypoxia. […]
A total of 144 rats were used for this part of study. […] From the day after irradiation, until any acute radiation-induced oral mucosal lesion had healed, the animals' tongues were assessed daily for the presence of radiation-induced mucositis (mucosal ulceration) under light anaesthesia, maintained with a 1.5% Halothane, oxygen mixture. […] The dose modification factor (DMF), defined as the ratio of the dose of radiation to cause mucositis in ‘active’ agent group to that in ‘placebo’ group, was calculated. […]

SMILES	Doses that have shown no toxicity [1]	Dose modification factor (DMF), active agent group vs placebo group [2]
COc1cc(/C=C/C(=O)CC(=O)/C=C/c2ccc(O)c(OC)c2)ccc1O [Curcumin, diferuloylmethane]	500-5000 mg/kg body weight	–
Cc1c(C)c2c(c(C)c1O)CC[C@@](C)(CCC[C@H](C)CCC[C@H](C)CCCC(C)C)O2 [α-tocopherol, 5,7,8-trimethyltocol]	–	1.05
